According to patent publication US20250382256A1, “DICARBOXYLIC ACID DIESTERS” (DSM IP Assets B.V., priority 2018, published 2025):
Structures can show the parent of a compound that is named as a salt. Where two headings read alike, the source gives them in different places.

Key:
[1] = tested on: rumen liquor; assay: In vitro test for methane production (modified Hohenheim Forage value Test, HFT); format: cell-based; details: read-out: Methane inhibition
Description: A modified version of the “Hohenheim Forage value Test (HFT)” was used for testing the effect of specific compounds on the rumen functions mimicked by this in-vitro system. Principle: Feed (i.e. a TMR) (300 mg) is given into a syringe with a composition of rumen liquor and an appropriate mixture of buffers (i.e. rumen-fluid buffer mix: 25 ml) and the substances to be tested in the concentrations as outlined in table 2 (the inhibitors to be tested are diluted in ethanol to reach the respective concentration of dry matter in 50 μl). The solution is incubated at 39° C. for 8 h. The quantity of produced gas is measured and put into a formula for conversion. After the incubation the composition of gas is measured with a GC. TMR (44% concentrate, 6% hay, 37% maize silage and 13% grass silage) is sieved to 1 mm and weighed exactly into the syringes. One run contains 4 repetitions, each with 16 syringes and comprises substrate controls, which display the gas production without the effect of the tested compounds, carrier controls, which display the gas production in the presence of the carrier (solvent) only (i.e. EtOH used to dissolve the test compounds), and test samples (in the carrier), which contain the test substances in varying concentrations as outlined in table 2. The components are mixed in a Woulff bottle in following order: • 711 ml water • 0.18 ml trace element solution • 355.5 ml buffer solution • 355.5 ml mass element solution The completed solution is warmed up to 39° C. followed by the addition of 1.83 ml sodium salt solution and the addition of reduction solution at 36° C. The rumen liquor (750 ml) is added, when the indicator turns colorless under continued agitation and CO2-gassing. The rumen-fluid-buffer-mix is added to the glass syringe prepared as outlined above containing the TMR and the active to be tested. The syringes are then incubated for 8 hours at 39° C. under gentle agitation. After 8 the volume of gas produced is measured, and the percentage of methane in the gas phase is determined by gas chromatography.

[2] = Vapor pressure of the purified diester; format: physicochemical; details: purified product

SMILES	inhibition at 2.5 µM ([1]; 8 h) [%]	inhibition at 5 µM ([1]; 8 h) [%]	inhibition at 10 µM ([1]; 8 h) [%]	vapor pressure [2] [mbar]	inhibition at 2.5 µM ([1]; 2.5 μmol/l, 8 h at 39° C., TMR in rumen-fluid buffer mix, reduction versus substrate control) [%]	inhibition at 5 µM ([1]; 5 μmol/l, 8 h at 39° C., TMR in rumen-fluid buffer mix, reduction versus substrate control) [%]	inhibition at 10 µM ([1]; 10 μmol/l, 8 h at 39° C., TMR in rumen-fluid buffer mix, reduction versus substrate control) [%]
O=C(CC(=O)OCCCO[N+](=O)[O-])OCCCO[N+](=O)[O-] [(I-a), bis(3-(nitrooxy)propyl) malonate]	72	97	99	0.00133			
O=C(/C=C/C(=O)OCCCO[N+](=O)[O-])OCCCO[N+](=O)[O-] [(I-b), bis(3-(nitrooxy)propyl) fumarate]		96	99	0.00133			
O=C(CCC(=O)OCCCO[N+](=O)[O-])OCCCO[N+](=O)[O-] [(I-c), bis(3-(nitrooxy)propyl) succinate]			99	0.00133			
O=[N+]([O-])OCCCO [Ref, 3-nitrooxypropanol, reference compound]					32	86	99
